The subject of experiment [1] is tumor necrosis factor (α). Briefly: Cytokine Induction in Human Cells: tumor necrosis factor (α) by ELISA or IGEN assay. Further details: key to Lowest Effective Concentration (μM) Tumor Necrosis Factor: *: no induction was seen at any of the tested concentrations; generally the highest concentration tested was 10 or 30 μM. Format: cell-based. The following applies: human PBMC, 18 to 24 hours incubation, lowest concentration found to induce tumor necrosis factor. The text has this:
(§1) An in vitro human blood cell system is used to assess cytokine induction. Activity is based on the measurement of interferon and tumor necrosis factor (α) (IFN and TNF, respectively) secreted into culture media as described by Testerman et. al. In “Cytokine Induction by the Immunomodulators Imiquimod and S-27609”, Journal of Leukocyte Biology, 58, 365-372 (September, 1995).
(§2) Whole blood from healthy human donors is collected by venipuncture into EDTA vacutainer tubes. Peripheral blood mononuclear cells (PBMC) are separated from whole blood by density gradient centrifugation using Histopaque®-1077. Blood is diluted 1:1 with Dulbecco's Phosphate Buffered Saline (DPBS) or Hank's Balanced Salts Solution (HBSS). The PBMC layer is collected and washed twice with DPBS or HBSS and resuspended at 4×10^6 cells/mL in RPMI complete. The PBMC suspension is added to 48 well flat bottom sterile tissue culture plates (Costar, Cambridge, Mass. or Becton Dickinson Labware, Lincoln Park, N.J.) containing an equal volume of RPMI complete media containing test compound.
(§3) The compounds are solubilized in dimethyl sulfoxide (DMSO). The DMSO concentration should not exceed a final concentration of 1% for addition to the culture wells. The compounds are generally tested at concentrations ranging from 30-0.014 μM.
(§4) The solution of test compound is added at 60 μM to the first well containing RPMI complete and serial 3 fold dilutions are made in the wells. The PBMC suspension is then added to the wells in an equal volume, bringing the test compound concentrations to the desired range (30-0.014 μM). The final concentration of PBMC suspension is 2×10^6 cells/mL. The plates are covered with sterile plastic lids, mixed gently and then incubated for 18 to 24 hours at 37° C. in a 5% carbon dioxide atmosphere.
(§5) Following incubation the plates are centrifuged for 10 minutes at 1000 rpm (˜200×g) at 4° C. The cell-free culture supernatant is removed with a sterile polypropylene pipet and transferred to sterile polypropylene tubes. Samples are maintained at −30 to −70° C. until analysis. The samples are analyzed for interferon (α) by ELISA and for tumor necrosis factor (α) by ELISA or IGEN Assay
Tumor necrosis factor (α) (TNF) concentration is determined using ELISA kits available from Biosource International, Camarillo, Calif. Alternately, the TNF concentration can be determined by Origen® M-Series Immunoassay and read on an IGEN M-8 analyzer from IGEN International, Gaithersburg, Md. The immunoassay uses a human TNF capture and detection antibody pair from Biosource International, Camarillo, Calif. Results are expressed in pg/mL.
(§6) The table below lists the lowest concentration found to induce interferon and the lowest concentration found to induce tumor necrosis factor for each compound.

Another experiment deals with interferon (α). As to the kind of experiment: Cytokine Induction in Human Cells: interferon (α) by ELISA. Format: cell-based. Further details: key to Lowest Effective Concentration (μM) Interferon: *: no induction was seen at any of the tested concentrations; generally the highest concentration tested was 10 or 30 μM. The following applies: human PBMC, 18 to 24 hours incubation, lowest concentration found to induce interferon.
From the text: as §1, §2, §3, §4, §5
Interferon (α) concentration is determined by ELISA using a Human Multi-Species kit from PBL Biomedical Laboratories, New Brunswick, N.J. Results are expressed in pg/mL.
as §6
(In general: In an ELISA, binding on a coated surface is turned into a signal by an enzyme label.)

As a reminder, the minimal effective concentration is the lowest level tested that produced the effect sought.

On to `CCCCc1nc2c(N)nc3ccccc3c2n1CCOCCNS(=O)(=O)CC` [Example 6], for which the minimal effective concentration came to 1 µM in experiment [1] and 0.001 µM in the experiment on interferon (α).

As for `CCCCc1nc2c(N)nc3ccccc3c2n1CCOCCNS(=O)(=O)C(C)C` [Example 7], the minimal effective concentration in experiment [1] stood at 1 µM; in the experiment with interferon (α) it was 0.01 µM.

Regarding `CCCCc1nc2c(N)nc3ccccc3c2n1CCOCCNS(=O)(=O)N(C)C` [Example 8], the minimal effective concentration in experiment [1] came to 1 µM; in the experiment with interferon (α) it was 0.01 µM.

Consider `CCCCc1nc2c(N)nc3ccccc3c2n1CCOCCNS(=O)(=O)CCCC` [Example 9], for which the minimal effective concentration in experiment [1] stood at 1 µM; in the experiment with interferon (α) it was 0.1 µM.

For the molecule `CCCCc1nc2c(N)nc3ccccc3c2n1CCOCCNS(=O)(=O)c1ccccc1` [Example 10], the results for the minimal effective concentration (in experiment [1]; in the experiment on interferon (α)) were 10 µM and 1 µM, respectively.

Consider `CCCCc1nc2c(N)nc3ccccc3c2n1CCOCCNS(=O)(=O)c1cccs1` [Example 11], for which the minimal effective concentration was found to be 10 µM in experiment [1] and 1 µM in the experiment on interferon (α).

With `CCCCc1nc2c(N)nc3ccccc3c2n1CCOCCNS(=O)(=O)Cc1ccccc1` [Example 12], the minimal effective concentration in experiment [1] was 10 µM; with interferon (α) it was 0.1 µM.

On to `CCCCc1nc2c(N)nc3ccccc3c2n1CCOCCNS(=O)(=O)c1cccc(F)c1` [Example 13], for which the results for the minimal effective concentration (in experiment [1]; in the experiment with interferon (α)) were 10 µM and 1 µM, respectively.

Turning to `CCCCc1nc2c(N)nc3ccccc3c2n1CCOCCNS(=O)(=O)c1ccc(C#N)cc1` [Example 14], the values for the minimal effective concentration (in experiment [1]; in the experiment with interferon (α)) were 10 µM and 1 µM, respectively.

As for `CCCCc1nc2c(N)nc3ccccc3c2n1CCOCCNS(=O)(=O)c1cccc(C#N)c1` [Example 15], the minimal effective concentration (in experiment [1]; with interferon (α)) was 10 µM in each case.

On to `CCCCc1nc2c(N)nc3ccccc3c2n1CCOCCNS(=O)(=O)c1ccc(OC)cc1` [Example 16], for which the minimal effective concentration amounted to 10 µM in experiment [1] and 1 µM in the experiment on interferon (α).

Regarding `CCCCc1nc2c(N)nc3ccccc3c2n1CCOCCNS(=O)(=O)c1ccc(F)cc1F` [Example 17], the results for the minimal effective concentration (in experiment [1]; with interferon (α)) were 10 µM and 1 µM, respectively.

In experiment [1], `CCCCc1nc2c(N)nc3ccccc3c2n1CCOCCNS(=O)(=O)c1cccc2ccccc12` [Example 18] yielded a minimal effective concentration of 10 µM. Also, the “Lowest Effective Concentration (μM) Interferon” value with interferon (α) is reported as “*”.

Molecule `CCCCc1nc2c(N)nc3ccccc3c2n1CCOCCNS(=O)(=O)c1ccc2ccccc2c1` [Example 19] returned a minimal effective concentration in experiment [1] of 10 µM. Further, the “Lowest Effective Concentration (μM) Interferon” value in the experiment with interferon (α) is “*”.

`CCCCc1nc2c(N)nc3ccccc3c2n1CCOCCNS(=O)(=O)c1cccc2cccnc12` [Example 20]: the minimal effective concentration in experiment [1] turned out to be 10 µM; in the experiment with interferon (α), 1 µM.

`CCCCc1nc2c(N)nc3ccccc3c2n1CCOCCNS(=O)(=O)c1ccc(C(F)(F)F)cc1` [Example 21]: the minimal effective concentration (in experiment [1]; with interferon (α)) was 10 µM in each case.

On to `CCCCc1nc2c(N)nc3ccccc3c2n1CCOCCNS(=O)(=O)c1ccc(-c2ccccc2)cc1` [Example 22], for which the results for the minimal effective concentration (in experiment [1]; with interferon (α)) were 10 µM and 0.0001 µM, respectively.

On to `CCCCc1nc2c(N)nc3ccccc3c2n1CCOCCNS(=O)(=O)c1ccc(S(C)(=O)=O)cc1` [Example 23], for which the minimal effective concentration in experiment [1] is 10 µM; with interferon (α), 0.0001 µM.

In the case of `CCCCc1nc2c(N)nc3ccccc3c2n1CCOCCNS(=O)(=O)c1ccc(OC(F)(F)F)cc1` [Example 24], the minimal effective concentration in experiment [1] is 10 µM; in the experiment on interferon (α), 0.0001 µM.

For the molecule `CCCCc1nc2c(N)nc3ccccc3c2n1CCOCCNS(=O)(=O)c1ccc(/N=N/c2ccc(N(C)C)cc2)cc1` [Example 25], in experiment [1], the “Lowest Effective Concentration (μM) Tumor Necrosis Factor” value is recorded as “*”. For the same molecule, the minimal effective concentration in the experiment with interferon (α) was 0.0001 µM.

Consider `CCCCc1nc2c(N)nc3ccccc3c2n1CCOCCNS(=O)(=O)C[C@@]12CC[C@@H](CC1=O)C2(C)C` [Example 26], for which the minimal effective concentration in experiment [1] is 10 µM; in the experiment on interferon (α), 0.01 µM.

As to `CCC(COCCC1CCN(S(=O)(=O)C(C)C)CC1)n1cnc2c(N)nc3ccccc3c21` (stereo not drawn) [Example 27], the minimal effective concentration in experiment [1] came to 1 µM; with interferon (α), 0.1 µM.

Turning to `CCC(COCCC1CCN(S(=O)(=O)N(C)C)CC1)n1cnc2c(N)nc3ccccc3c21` (stereo not drawn) [Example 28], the results for the minimal effective concentration (in experiment [1]; with interferon (α)) were 1 µM and 0.1 µM, respectively.

Take `CCCCS(=O)(=O)N1CCC(CCOCC(CC)n2cnc3c(N)nc4ccccc4c32)CC1` (stereo not drawn) [Example 29]: the minimal effective concentration in experiment [1] worked out at 10 µM; with interferon (α), 1 µM.

Consider `CCC(COCCC1CCN(S(=O)(=O)c2ccccc2)CC1)n1cnc2c(N)nc3ccccc3c21` (stereo not drawn) [Example 30], for which the minimal effective concentration came out at 10 µM in experiment [1] and 1 µM with interferon (α).

As for `CCC(COCCC1CCN(S(=O)(=O)c2cccs2)CC1)n1cnc2c(N)nc3ccccc3c21` (stereo not drawn) [Example 31], the minimal effective concentration in experiment [1] is 10 µM; in the experiment on interferon (α) it was 1 µM.

As to `CCC(COCCC1CCN(S(=O)(=O)c2cccc(F)c2)CC1)n1cnc2c(N)nc3ccccc3c21` (stereo not drawn) [Example 32], the minimal effective concentration (in experiment [1]; in the experiment with interferon (α)) was 1 µM each time.

In the case of `CCC(COCCC1CCN(S(=O)(=O)c2cccc(C#N)c2)CC1)n1cnc2c(N)nc3ccccc3c21` (stereo not drawn) [Example 33], the minimal effective concentration (in experiment [1]; in the experiment with interferon (α)) was 1 µM in each case.

For `CCC(COCCC1CCN(S(=O)(=O)c2ccc(OC)cc2)CC1)n1cnc2c(N)nc3ccccc3c21` (stereo not drawn) [Example 34], the minimal effective concentration (in experiment [1]; with interferon (α)) was 1 µM throughout.

Consider `CCC(COCCC1CCN(S(=O)(=O)c2ccc(F)cc2F)CC1)n1cnc2c(N)nc3ccccc3c21` (stereo not drawn) [Example 35], for which the minimal effective concentration (in experiment [1]; with interferon (α)) was 1 µM each time.

For the molecule `CCC(COCCC1CCN(S(=O)(=O)c2cccc3cccnc23)CC1)n1cnc2c(N)nc3ccccc3c21` (stereo not drawn) [Example 36], the results for the minimal effective concentration (in experiment [1]; with interferon (α)) were 10 µM and 1 µM, respectively.

On to `CCC(COCCC1CCN(S(=O)(=O)c2ccc(S(C)(=O)=O)cc2)CC1)n1cnc2c(N)nc3ccccc3c21` (stereo not drawn) [Example 37], for which the minimal effective concentration in experiment [1] turned out to be 1 µM; with interferon (α), 0.1 µM.

On to `CCC(COCCC1CCN(S(=O)(=O)c2ccc(OC(F)(F)F)cc2)CC1)n1cnc2c(N)nc3ccccc3c21` (stereo not drawn) [Example 38], for which, in experiment [1], the “Lowest Effective Concentration (μM) Tumor Necrosis Factor” value is on record as “*”. In the experiment on interferon (α), the “Lowest Effective Concentration (μM) Interferon” value is recorded as “*”.

On to `CCC(COCCC1CCN(S(=O)(=O)c2ccc(/N=N/c3ccc(N(C)C)cc3)cc2)CC1)n1cnc2c(N)nc3ccccc3c21` (stereo not drawn) [Example 39], for which, in experiment [1], the “Lowest Effective Concentration (μM) Tumor Necrosis Factor” value is “*”. The minimal effective concentration with interferon (α) came out at 1 µM.

As for `Nc1nc2ccccc2c2c1ncn2CCOCCNS(=O)(=O)c1ccccc1` [Example 41], the minimal effective concentration in experiment [1] worked out at 1 µM; in the experiment on interferon (α), 10 µM.

With `Nc1nc2ccccc2c2c1ncn2CCOCCNS(=O)(=O)c1cccc(F)c1` [Example 42], the minimal effective concentration in experiment [1] stood at 1 µM; in the experiment on interferon (α), 10 µM.

As to `COc1ccc(S(=O)(=O)NCCOCCn2cnc3c(N)nc4ccccc4c32)cc1` [Example 43], the minimal effective concentration (in experiment [1]; in the experiment on interferon (α)) was 10 µM in each case.

For `Nc1nc2ccccc2c2c1ncn2CCOCCNS(=O)(=O)c1ccc(F)cc1F` [Example 44], the minimal effective concentration came to 10 µM in experiment [1] and 1 µM in the experiment with interferon (α).

Turning to `Nc1nc2ccccc2c2c1ncn2CCOCCNS(=O)(=O)c1ccc2ccccc2c1` [Example 45], the “Lowest Effective Concentration (μM) Tumor Necrosis Factor” value in experiment [1] was “*”. Moreover, the “Lowest Effective Concentration (μM) Interferon” value in the experiment with interferon (α) is on record as “*”.

Values taken from patent US6677347B2, “Sulfonamido ether substituted imidazoquinolines” (3M Innovative Properties Company, priority 2000, dated 2004).
